Assay results taken from article PMC6316070 (Marine Drugs, 2018).

Assays:
Conditions in all cases: human
in vitro [1] = assay: in vitro
Experimental: (§1) The in vitro cytotoxic effects of the novel compounds 1, 8, and 9 were evaluated on five human cancer cell lines using the MTT (3-(4,5-dimethylthiazol-2-yl)-2,5-diphenyltetrazolium bromide) method [32, 33, 34]. […] All cells were cultured in RPMI-1640 medium containing 10% fetal bovine serum (FBS), and kept in a humidified atmosphere containing 5% CO2 at 37 °C. […] In brief, the cell suspensions (200 μL, 5 × 10^4 cells/mL) were seeded into 96-well culture plates and kept at 37 °C for 12 h, then the sample solvents (20 μL) were added into each well and further cultured at 37 °C for 24 h. Subsequently, MTT (100 μg) was added into each well and incubated at 37 °C for 4 h. After removal of the 100 μL culture medium, the cells were lysed with 20% SDS-50% DMF (100 μL). The remaining lysates were subjected to measurements of the optical density at 595 nm with a 96-well microtiter plate reader. Reed and Muench’s method was used to calculate IC50 values [32].

in vitro [2] = assay: in vitro; remark: listed apart in the source
Experimental: as §1

in vitro [3] = assay: in vitro; remark: listed apart in the source
Experimental: as §1

in vitro [4] = assay: in vitro; remark: listed apart in the source
Experimental: as §1

in vitro [5] = assay: in vitro; remark: listed apart in the source
Experimental: as §1

Measured: IC50

CC(=O)OCC(C)=CCCC(C)(O)C1CCC(C)(O)C1C (stereo not shown) [Compound 8, Cyclonerodiol C]
> 40 µM: all assays above

CC1C(C(C)(O)CC=CC(C)(C)O)CCC1(C)O (stereo not shown) [Compound 9, Cyclonerodiol D]
> 40 µM: all assays above
